Reference: patent publication US20260365690A1, “COMPOUND FOR RNA CAPPING AND USE THEREOF” (GUANGZHOU HENOVCOM BIOSCIENCE CO., LTD., priority 2022, published 2026)

How the values were obtained:
mRNA = mRNA synthesis by in vitro transcription (co-transcriptional capping), final product mass; assay type: biochemical; details: obtained from 20 μL mRNA synthesis reaction system; T7 RNA Polymerase; cap analog 4 mM; 37 °C, 2 to 3 hours
Experimental: 1) The plasmids were linearized and the DNA templates were purified.
2) The mRNA was synthesized by in vitro transcription, using 11 cap structures of the present disclosure, positive control CleanCap®AG (3′OMe) (Trilink, N-7413), negative control (uncapped mRNA) and blank control (DNase/RNase-Free water), respectively.
The reaction was carried out at 37 °C for 2 to 3 hours. TURBO DNase digestion was carried out for 15 minutes. The mRNA was precipitated by LiC for 30 min or more or overnight, and the mRNA precipitate was washed with 75% ethanol, dried briefly to evaporate the ethanol, and the mRNA was redissolved with RNase-Free water.
3) The transcription product was purified, and the reaction yield was calculated to provide the test results of some compounds, as shown in Table 2.

HEK293T cells = experiment: Expression efficiency of capped luciferase mRNAs in HEK293T cells; assay type: cell-based; details: 6 h after transfection of capped luciferase mRNA into HEK293T cells; ratio to N-7413 (= 1)
Experimental: 2. Evaluation of Expression Efficiency of Different Capped Luciferase mRNAs in HEK293T Cells
1) HNE293T cells were cultured in DMEM medium containing 10% FBS and penicillin/streptomycin at 37 °C and 5% CO2.
2) The cultured HEK293T cells were spread in a 96-well plate with 1.25×10^4 cells per well.
3) After the cells completely adhered to the wall, 0.5 μg of a mixture of mRNA sample and Polyplus jetMESSENGER was added to each well of cells, and cultured at 37 °C and 5% CO2 for 6 hours.
4) The growth medium was removed from the cells to be tested and the cells were rinsed with PBS. After centrifugation to remove PBS, 50 μL of 1× lysis buffer was added thereto, and cells and all liquid were transferred to a microcentrifuge tube, and then centrifuged at 12000×g and 4 °C for 2 min.
5) The supernatant was transferred to a new tube. Fluorescence readings were detected using the ONE-Glo Luciferase Assay System Kit.
3. All compounds, N-7413, negative control and blank control were tested under the same conditions, and some experimental results in the test results are shown in Table 5.
The relative fluorescence reading results (6 h) after transfection of capped mRNA into 293T cells are now provided, as shown in Table 5. It can be seen from the FIGURE that the mRNA capped by the compound of the present disclosure has a high expression level, and some cap structures can enable higher expression efficiency of mRNA compared to N-7413.

Row | SMILES | Final product mass (mRNA) | Relative fluorescence reading (HEK293T cells)
1 | CO[C@@H]1[C@H](CC(=O)NC[C@H]2O[C@@H](n3cnc4c(=O)[nH]c(N)nc43)[C@H](O)[C@@H]2O)[C@@H](COP(=O)(O)OP(=O)(O)OP(=O)(O)OC[C@H]2O[C@@H](n3c[n+](C)c4c(=O)[nH]c(N)nc43)[C@H](O)[C@@H]2C)O[C@H]1n1cnc2c(N)ncnc21 [Compound 59] | 91 µg | 0.71
2 | CO[C@@H]1[C@H](OP(=O)(O)OC[C@H]2O[C@@H](n3cnc4c(=O)[nH]c(N)nc43)[C@H](O)[C@@H]2O)[C@@H](COP(=O)(O)OP(=O)(O)CP(=O)(O)OC[C@H]2O[C@@H](n3c[n+](C)c4c(=O)[nH]c(N)nc43)[C@H](O)[C@@H]2CCF)O[C@H]1n1cnc2c(N)ncnc21 [Compound 103] | 94 µg | 1.45
3 | CNC(=O)[C@H]1[C@@H](O)[C@H](n2c[n+](C)c3c(=O)[nH]c(N)nc32)O[C@@H]1COP(=O)(O)OP(=O)(O)OP(=O)(O)OC[C@H]1O[C@@H](n2cnc3c(N)ncnc32)[C@H](OC)[C@@H]1OP(=O)(O)OC[C@H]1O[C@@H](n2cnc3c(=O)[nH]c(N)nc32)[C@H](O)[C@@H]1O [Compound 191] | 100 µg | 1.68
4 | CCCCCCNC(=O)[C@H]1[C@@H](O)[C@H](n2c[n+](C)c3c(=O)[nH]c(N)nc32)O[C@@H]1COP(=O)(O)OP(=O)(O)OP(=O)(O)OC[C@H]1O[C@@H](n2cnc3c(N)ncnc32)[C@H](OC)[C@@H]1OP(=O)(O)OC[C@H]1O[C@@H](n2cnc3c(=O)[nH]c(N)nc32)[C@H](O)[C@@H]1O [Compound 205] | 98 µg | 1.52
5 | CCC(=O)N[C@H]1[C@@H](O)[C@H](n2c[n+](C)c3c(=O)[nH]c(N)nc32)O[C@@H]1COP(=O)(O)OP(=O)(O)OP(=O)(O)OC[C@H]1O[C@@H](n2cnc3c(N)ncnc32)[C@H](OC)[C@@H]1OP(=O)(O)OC[C@H]1O[C@@H](n2cnc3c(=O)[nH]c(N)nc32)[C@H](O)[C@@H]1O [Compound 291] | 106 µg | 1.60
6 | CO[C@@H]1[C@H](OP(=O)(O)OC[C@H]2O[C@@H](n3cnc4c(=O)[nH]c(N)nc43)[C@H](O)[C@@H]2O)[C@@H](COP(=O)(O)OP(=O)(O)OP(=O)(O)OC[C@H]2O[C@@H](n3c[n+](C)c4c(=O)[nH]c(N)nc43)[C@H](O)[C@@H]2NC(=O)C(C)C)O[C@H]1n1cnc2c(N)ncnc21 [Compound 293] | 103 µg | 1.68
7 | CO[C@@H]1[C@H](OP(=O)(O)OC[C@H]2O[C@@H](n3cnc4c(=O)[nH]c(N)nc43)[C@H](O)[C@@H]2O)[C@@H](COP(=O)(O)OP(=O)(O)OP(=O)(O)OC[C@H]2O[C@@H](n3c[n+](C)c4c(=O)[nH]c(N)nc43)[C@H](O)[C@@H]2NC(=O)c2ccccc2)O[C@H]1n1cnc2c(N)ncnc21 [Compound 297] | 110 µg | 1.79
8 | CO[C@@H]1[C@H](OP(=O)(O)OC[C@H]2O[C@@H](n3cnc4c(=O)[nH]c(N)nc43)[C@H](O)[C@@H]2O)[C@@H](COP(=O)(O)OP(=O)(O)OP(=O)(O)OC[C@H]2O[C@@H](n3c[n+](C)c4c(=O)[nH]c(N)nc43)[C@H](O)[C@@H]2N=[N+]=[N-])O[C@H]1n1cnc2c(N)ncnc21 [Compound 399] | 117 µg | 1.51
9 | C/C=C/C[C@H]1[C@@H](O)[C@H](n2c[n+](C)c3c(=O)[nH]c(N)nc32)O[C@@H]1COP(=O)(O)OP(=O)(O)OP(=O)(O)OC[C@H]1O[C@@H](n2cnc3c(N)ncnc32)[C@H](OC)[C@@H]1OP(=O)([O-])OC[C@H]1O[C@@H](n2cnc3c(=O)[nH]c(N)nc32)[C@H](O)[C@@H]1O [Compound 711] | 106 µg | 1.86
10 | C=CC[n+]1cn([C@@H]2O[C@H](COP(=O)(O)OP(=O)(O)OP(=O)(O)OC[C@H]3O[C@@H](n4cnc5c(N)ncnc54)[C@H](OC)[C@@H]3OP(=O)(O)OC[C@H]3O[C@@H](n4cnc5c(=O)[nH]c(N)nc54)[C@H](O)[C@@H]3O)[C@@H](CC)[C@H]2O)c2nc(N)[nH]c(=O)c21 [Compound 716] | 103 µg | 1.50
11 | CC[C@H]1[C@@H](O)[C@H](n2c[n+](C)c3c(=O)[nH]c(N)nc32)O[C@@H]1COP(=O)(O)OP(O)(=S)OP(=O)(O)OC[C@H]1O[C@@H](n2cnc3c(N)ncnc32)[C@H](OC)[C@@H]1OP(=O)([O-])OC[C@H]1O[C@@H](n2cnc3c(=O)[nH]c(N)nc32)[C@H](O)[C@@H]1O (stereo partly shown) [Compound 718] | 106 µg | 1.66
12 | CCC[C@H]1[C@@H](O)[C@H](n2c[n+](C)c3c(=O)[nH]c(N)nc32)O[C@@H]1COP(=O)(O)OP(=O)(O)OP(=O)(O)OC[C@H]1O[C@@H](n2cnc3c(NC)ncnc32)[C@H](OC)[C@@H]1OP(=O)(O)OC[C@H]1O[C@@H](n2cnc3c(=O)[nH]c(N)nc32)[C@H](O)[C@@H]1O [Compound 719] | 97 µg | 1.69
13 | CO[C@@H]1[C@H](OP(=O)(O)OC[C@H]2O[C@@H](n3cnc4c(=O)[nH]c(N)nc43)[C@H](O)[C@@H]2O)[C@@H](COP(=O)(O)OP(=O)(O)OP(=O)(O)OC[C@H]2O[C@@H](n3c[n+](C)c4c(=O)[nH]c(N)nc43)[C@H](O)[C@@H]2NC(=O)C(C)(C)C)O[C@H]1n1cnc2c(N)ncnc21 [Compound 722] | 103 µg | 1.74
14 | CO[C@@H]1[C@H](OP(=O)([O-])OC[C@H]2O[C@@H](n3cnc4c(=O)[nH]c(N)nc43)[C@H](O)[C@@H]2O)[C@@H](COP(=O)(O)OP(=O)(O)OP(=O)(O)OC[C@H]2O[C@@H](n3c[n+](C)c4c(=O)[nH]c(N)nc43)[C@H](O)[C@@H]2OC)O[C@H]1n1cnc2c(N)ncnc21 [Compound N-7413, reference compound] | 114 µg | 1.00
